Test results as given in patent US9023821B2, “Use of MicroRNA for treating diseases associated with a dysfunction of the cilia in multiciliated epithelial cells” (Centre National de la Recherche Scientifique, priority 2009, dated 2015).

Columns and labels:
[1] = tested on: human airway epithelial cells (HAECs); experiment: High-throughput sequencing (HTS) of miRNAs at four stages of differentiation of HAECs; settings: for Modulation (ratio of the level of intensity of expression in log2 in two stages of differentiation) measured by high-throughput sequencing, D7 − D0 / Modulation (ratio of the level of intensity of expression in log2 in two stages of differentiation) measured by high-throughput sequencing, FC − D7 / Modulation (ratio of the level of intensity of expression in log2 in two stages of differentiation) measured by high-throughput sequencing, WD − D0 / Modulation (ratio of the level of intensity of expression in log2 in two stages of differentiation) measured by high-throughput sequencing, WD − FC / Level of intensity of expression in log2 measured by high-throughput sequencing, D0 / Level of intensity of expression in log2 measured by high-throughput sequencing, D7 / Level of intensity of expression in log2 measured by high-throughput sequencing, FC / Level of intensity of expression in log2 measured by high-throughput sequencing, WD: Table VI; for Level of intensity of expression in log2 At the differentiated stage (WD) measured in HTS: healthy human airway epithelial tissue; for Level of intensity of expression in log2 measured by high-throughput sequencing, D0: stage D0; for Level of intensity of expression in log2 measured by high-throughput sequencing, D7: stage D7; for Level of intensity of expression in log2 measured by high-throughput sequencing, FC: stage FC; for Level of intensity of expression in log2 At the differentiated stage (WD) measured in HTS / Level of intensity of expression in log2 measured by high-throughput sequencing, WD: stage WD
From the text: The total RNAs were extracted from HAECs cultivated at the air-liquid interface at four stages of differentiation: ALI-D0 (0 day), ALI-D7 (7 days), ALI-FC (during appearance of the first cilia at about 14 days) and ALI-WD (wholly differentiated at about 21 days). The cells are lysed in reagent with Trizol® (Invitrogen). The total RNAs containing small RNAs and microRNAs are purified on Qiagen RNEasy columns (Qiagen) according to the supplier's instructions.
The total RNAs containing small RNAs and microRNAs are isolated as before. The procedure is based on the Applied Biosystems Ligase-Enhanced Genome Detection technology (LEGenD™); the SOLiD™ Small RNA Expression kit (Applied Biosystems, France) was used. With this method it is possible to convert the small RNAs of a sample into a library of double-stranded DNA; it was developed by Applied Biosystems SOLiD™ System for a new generation of high-throughput sequencing.
The high-throughput sequencing of the microRNAs was carried out according to the supplier's recommendations. Briefly, the total RNAs containing the small RNAs are hybridized (65° C., 10 min, then at 16° C., 5 min) and ligated (16° C., 2-16 h in a thermocycler) with the Adaptor Mix A for producing a matrix for sequencing the 5′ end of the small RNAs, or with the Adaptor Mix B for sequencing the 3′ end. The samples are then reverse-transcribed (42° C., 30 min) to synthesize the complementary DNA (cDNA). The library of small RNAs is amplified by PCR and after migration on polyacrylamide gel the amplified small RNAs are cut out and extracted from the gel according to their size (length of about 105-150 bases, according to the supplier's instructions), eluted and resuspended in nuclease-free water. The concentration of nucleic acids is then measured and normalized before proceeding with preparation of the samples for sequencing.
For each microRNA sequenced, the number of sequences of the 5p strand and of the 3p strand of the microRNA was normalized to 10^6 sequences and converted to percentage abundance of expression for each of the microRNAs. The data were then normalized according to a linear model and an empirical Bayesian method using software R. For subsequent analyses, only the microRNAs were retained for which the percentage expression (or abundance) is greater than 1% of the total of the microRNAs in at least one culture condition, with a |Log2 Ratio| below 0.5 and an adjusted P-value below 0.05.

[2] = tested on: human airway epithelial cells (HAECs); experiment: Agilent miRNA chips, miRNA expression at four stages of differentiation of HAECs; settings: for Modulation (ratio of the level of intensity of expression in log2 in two stages of differentiation) measured with the Agilent chips, D7 − D0 / Modulation (ratio of the level of intensity of expression in log2 in two stages of differentiation) measured with the Agilent chips, FC − D7 / Modulation (ratio of the level of intensity of expression in log2 in two stages of differentiation) measured with the Agilent chips, WD − D0 / Modulation (ratio of the level of intensity of expression in log2 in two stages of differentiation) measured with the Agilent chips, WD − FC / Level of intensity of expression in log2 measured with the Agilent chips, D0 / Level of intensity of expression in log2 measured with the Agilent chips, D7 / Level of intensity of expression in log2 measured with the Agilent chips, FC / Level of intensity of expression in log2 measured with the Agilent chips, WD: Table VI; for Modulation (ratio of the level of intensity of expression in log2 at two stages of differentiation), FC − D7 / Modulation (ratio of the level of intensity of expression in log2 at two stages of differentiation), WD − FC: Agilent miRNA chips, Table V; for Level of intensity of expression in log2 measured with the Agilent chips, D0: stage D0; for Level of intensity of expression in log2 measured with the Agilent chips, D7: stage D7; for Level of intensity of expression in log2 measured with the Agilent chips, FC: stage FC; for Level of intensity of expression in log2 measured with the Agilent chips, WD: stage WD
From the text: In parallel with the high-throughput sequencing of the microRNAs, the repertoire of expression of the microRNAs (microRNAome) is investigated using the technology of Agilent® microRNA chips. For this, RNA samples from the same patients as before were used, labeled and hybridized on Agilent® miRNA chips (Human miRNA Microarray v2, containing 866 human miRNAs and 89 human viral miRNAs, i.e. all the human miRNAs contained and referenced in Sanger miRBase v.12.0, Agilent Technologies, France) using the “miRNA labeling and hybridization” kit, following the supplier's instructions (Agilent Technologies).
The inventors then used the Agilent miRNA chips to investigate the repertoire of expression of the miRNAs of the human airway epithelium and compare the results obtained in high-throughput sequencing with those obtained with Agilent® commercial miRNA chips.

[3] = tested on: basal cells and pyramidal cells of the airway epithelium; experiment: miRNA expression in sorted basal cells versus pyramidal cells (ciliated + secretory), HTS and Agilent chips; set-up: species or system human; settings: for Modulation of expression of the miRNAs in pyramidal cells (323(−)) relative to basal cells 323(+): HTS and Agilent chips; for Intensity of the level of expression in log2 in pyramidal cells (323(−)): pyramidal cells (ciliated + secretory)
Description: After dissociation of the stroma of nasal polyps, the epithelial cells (about 20.10^6) are incubated in PBS-BSA-EDTA for 30 min and then incubated with labeled antibody CD151-PE and anti-TF (tissue factor)-FITC for 20 min, 4° C. (see Hajj, R. et al., Stem Cells 25, 139-148 (2007)). After washing twice, the cells are taken up in PBS-EDTA and incubated with DAPI for labeling the cells whose integrity has been altered.
Cell sorting was carried out on the FACSAria sorter (BD Biosciences) equipped with 3 lasers, blue, red and violet. Dead cells, aggregates and double cells were excluded. The doubly positive population of basal cells (CD151+/FT+) and the negative population of cylindrical cells (containing ciliated cells and mucus-secreting cells) (CD151−/FT−) were selected and sorted at a rate of 5000 events/s ([…]). The purity and identity of the sorted cells were then verified by cytometry and immunocytochemistry.
Like the native airway epithelium, the model of differentiation in vitro used in these tests consists of basal cells, ciliated cells and mucus-secreting cells. In order to identify the repertoires of the miRNAs specific to each of the cellular types, the inventors used cell sorting by flow cytometry by means of specific markers (Hajj, R. et al. 2007). Using this technique, adult airway progenitor cells (corresponding a priori to basal cells) were isolated, selected and sorted (such cells appear doubly positive for tetraspanin CD151 and for the tissue factor) from the pyramidal cells (i.e. ciliated cells and mucus-secreting cells) which appear negative for these same markers. These were purified from polyps or from nasal conchae obtained from 3 separate donors.
After extracting the total RNAs, the expression profiles of the miRNAs were established by means of Agilent® commercial chips or by high-throughput sequencing (HTS). […] For the first time, the inventors thus attribute a repertoire of expression of the miRNAs specifically to separate cellular types of the airway epithelium during differentiation.

Row | Substance | Modulation (ratio of the level of intensity of expression in log2 in two stages of differentiation) measured by high-throughput sequencing, D7 − D0 [1] | Modulation (ratio of the level of intensity of expression in log2 in two stages of differentiation) measured by high-throughput sequencing, FC − D7 [1] | Modulation (ratio of the level of intensity of expression in log2 in two stages of differentiation) measured by high-throughput sequencing, WD − D0 [1] | Modulation (ratio of the level of intensity of expression in log2 in two stages of differentiation) measured by high-throughput sequencing, WD − FC [1] | Level of intensity of expression in log2 At the differentiated stage (WD) measured in HTS [1] | Level of intensity of expression in log2 measured by high-throughput sequencing, D0 [1] | Level of intensity of expression in log2 measured by high-throughput sequencing, D7 [1] | Level of intensity of expression in log2 measured by high-throughput sequencing, FC [1] | Level of intensity of expression in log2 measured by high-throughput sequencing, WD [1] | Modulation (ratio of the level of intensity of expression in log2 in two stages of differentiation) measured with the Agilent chips, D7 − D0 [2] | Modulation (ratio of the level of intensity of expression in log2 at two stages of differentiation), FC − D7 [2] | Modulation (ratio of the level of intensity of expression in log2 in two stages of differentiation) measured with the Agilent chips, FC − D7 [2] | Modulation (ratio of the level of intensity of expression in log2 in two stages of differentiation) measured with the Agilent chips, WD − D0 [2] | Modulation (ratio of the level of intensity of expression in log2 at two stages of differentiation), WD − FC [2] | Modulation (ratio of the level of intensity of expression in log2 in two stages of differentiation) measured with the Agilent chips, WD − FC [2] | Level of intensity of expression in log2 measured with the Agilent chips, D0 [2] | Level of intensity of expression in log2 measured with the Agilent chips, D7 [2] | Level of intensity of expression in log2 measured with the Agilent chips, FC [2] | Level of intensity of expression in log2 measured with the Agilent chips, WD [2] | Modulation of expression of the miRNAs in pyramidal cells (323(−)) relative to basal cells 323(+) [3] | other results
1 | hsa-let-7g: human miRNA, SEQ ID No. 162 (UGAGGUAGUAGUUUGUACAGUU; expressed or natural sequence; listed as Homo sapiens) | −0.24 log2 | −0.03 log2 | 0.56 log2 | 0.83 log2 | 12.40 log2 | 11.84 log2 | 11.60 log2 | 11.57 log2 | 12.40 log2 | 1.83 log2 | −0.54 log2 | −0.54 log2 | 1.50 log2 | 0.21 log2 | 0.21 log2 | 9.30 log2 | 11.12 log2 | 10.59 log2 | 10.80 log2 | −0.15 | Intensity of the level of expression in log2 in basal cells (323(+)) [3]: 8.37 log2; Intensity of the level of expression in log2 in pyramidal cells (323(−)) [3]: 8.22 log2
2 | hsa-miR-15a: human miRNA, SEQ ID No. 9 (UAGCAGCACAUAAUGGUUUGUG; expressed or natural sequence; listed as Homo sapiens) | 1.41 log2 | −0.19 log2 | 1.57 log2 | 0.35 log2 | 7.68 log2 | 6.11 log2 | 7.52 log2 | 7.33 log2 | 7.68 log2 | 2.36 log2 | −0.39 log2 | −0.39 log2 | 1.87 log2 | −0.10 log2 | −0.10 log2 | 7.74 log2 | 10.10 log2 | 9.71 log2 | 9.61 log2 | −2.10 | Intensity of the level of expression in log2 in basal cells (323(+)) [3]: 7.86 log2; Intensity of the level of expression in log2 in pyramidal cells (323(−)) [3]: 5.75 log2
